Measured values taken from the supplement of paper PMC10307832.

Key:
Test in all cases: relative viability (nuclei count vs DMSO), 5 days (fraction); higher = more cells survive
Phenformin = compound: N=C(N)NC(=N)NCCc1ccccc1 [Phenformin] (anchor plate); conditions: 250 µM
How it was run: (§1)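 Lung cancer cell lines in 1536-well plates were kept overnight at 37 °C, then pinned with five library-drug doses (not always all listed) spaced by √10 on vehicle-anchored plates. After 5 days without medium change, cells were fixed, permeabilised and Hoechst-stained in one step, imaged at 4×, and nuclei were counted with MetaXpress. Viability is treated-well nuclei divided by vehicle-well nuclei, taken as the median over plates. Plates passed only with control CV below 25% and at least one doubling.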

Erlotinib = compound: C#Cc1cccc(Nc2ncnc3cc(OCCOC)c(OCCOC)cc23)c1 [Erlotinib]
How it was run: as §1

AT9283 = compound: O=C(Nc1c[nH]nc1-c1nc2ccc(CN3CCOCC3)cc2[nH]1)NC1CC1 [AT9283]
How it was run: as §1

Cell Line	relative viability (Phenformin)	relative viability (Erlotinib; 0.02 µM)	relative viability (Erlotinib; 0.2 µM)	relative viability (Erlotinib; 0.6325 µM)	relative viability (Erlotinib; 2 µM)	relative viability (AT9283; 0.003 µM)	relative viability (AT9283; 0.03 µM)	relative viability (AT9283; 0.09487 µM)	relative viability (AT9283; 0.3 µM)
201T	0.45	0.963	0.957	0.946	0.865	0.909	0.97	0.537	0.361
A549	0.165	0.918	0.936	0.963	0.879	0.917	0.458	0.125	0.0647
A-427	0.323	1.03	0.957	1.08	1.01	0.929	0.453	0.264	0.242
ABC-1	0.25	0.827	0.881	1.01	0.81	0.831	0.301	0.3	0.235
BEN	0.263	0.927	0.954	1.19	0.961	0.874	0.965	0.23	0.278
CAL-12T	0.597	1	0.785	0.618	0.521	1.06	0.828	0.451	0.227
COR-L23	0.43	1.09	1.04	1.22	0.894	1.05	0.592	0.206	0.183
COR-L 105	0.551	0.931	0.515	0.4	0.334	0.983	0.4	0.334	0.334
Calu-6		1.01	0.986	1.01	0.907	1.01	0.299	0.246	0.273
ChaGo-K-1	0.514	0.977	1.05	1.04	0.903	0.849	0.91	0.451	0.396
EBC-1		0.977	0.988	0.978	0.897	0.969	0.289	0.164	0.165
EKVX	0.231	0.962	0.587	0.43	0.215	0.915	0.858	0.629	0.324
EMC-BAC-2	0.558	0.743	1.04	1.1	0.979	0.907	0.463	0.319	0.221
EPLC-272H	0.321	1.06	0.882	1.02	0.724	0.886	0.81	0.203	0.156
H3255	0.386	0.946	0.709	0.514	0.225	0.998	0.95	0.714	0.177
HARA	0.46	1.04	0.707	0.823	0.466	0.859	0.446	0.166	0.171
HCC-15	0.491	1.05	0.97	1.08	0.888	0.955	0.589	0.325	0.17
HCC-44	0.218	0.994	0.961	1.01	0.975	0.988	1	0.614	0.335
HCC-78	0.681	0.99	0.963	1.08	0.745	0.847	0.794	0.332	0.262
HCC-366	0.608	1.03	1.07	0.984	1.01	0.956	0.938	0.54	0.204
HCC-827	0.4	0.549	0.185	0.177	0.208	0.985	0.855	0.618	0.358
HOP-62	0.673	1.01	0.972	1.08	1.04	1	0.771	0.393	0.273
IA-LM		0.947	0.777	1.08	0.885	0.853	0.735	0.267	0.111
LC-2-ad	0.605	0.998	1.08	1.01	0.826	0.93	0.695	0.233	0.177
LCLC-97TM1	0.391	1.07	1.14	1.23	0.972	0.841	0.469	0.159	0.112

Cell Line	relative viability (Phenformin)	relative viability (Erlotinib; 0.02 µM)	relative viability (Erlotinib; 0.2 µM)	relative viability (Erlotinib; 0.6325 µM)	relative viability (Erlotinib; 2 µM)	relative viability (AT9283; 0.003 µM)	relative viability (AT9283; 0.03 µM)	relative viability (AT9283; 0.09487 µM)	relative viability (AT9283; 0.3 µM)
LCLC-103H	0.348	1.03	0.919	1	0.929	0.885	1.02	0.926	0.376
LK-2	0.485	0.993	0.864	1.36		0.937	0.57	0.168	0.195
LOU-NH91	0.705	0.831	0.696	0.756	0.68	0.936	0.812	0.614	0.48
LU99A	0.886	0.932	0.952	0.913	0.916	0.88	0.477	0.253	0.186
LXF-289	0.518	0.98	1.03	0.971	0.963	0.995	0.993	0.465	0.22
NCI-H23	0.749	0.959	0.757	1.16	0.979	0.895	0.71	0.432	0.306
NCI-H322M	0.791	0.825	0.703	0.574	0.513	0.817	0.67	0.469	0.474
NCI-H358	0.359	1.01	0.631	0.547	0.308	0.863	0.2	0.192	0.158
NCI-H460	0.529	0.994	0.959	1.05	0.96	0.985	0.931	0.542	0.21
NCI-H520	0.671	1.04	0.899	1.1	1.03	0.76	0.551	0.372	0.223
NCI-H522	0.639	0.949	1.03	0.86	0.816	0.776	0.618	0.611	0.464
NCI-H596	0.733	0.992	0.861	0.933	0.91	0.935	0.955	0.909	0.539
NCI-H647	0.554	0.878	0.829	1.08	0.912	0.902	0.434	0.167	0.11
NCI-H650	0.464	0.827	0.974	1.06	0.806	0.835	0.883	0.633	0.204
NCI-H661	0.285	1	0.939	1.01	0.81	0.981	0.491	0.388	0.39
NCI-H727	0.578	0.924	0.768	0.844	0.769	0.98	0.746	0.502	0.406
NCI-H838	0.634	1	0.896	1.14	0.883	0.969	0.517	0.313	0.253
NCI-H1299		1.03	1.02	1.05	0.992	1.03	0.699	0.473	0.364
NCI-H1355	0.456	0.978	0.878	0.956	0.755	0.956	0.971	0.68	0.197
NCI-H1395	0.451	0.865	0.88	1.08	0.981	0.789	0.662	0.39	0.393
NCI-H1437	0.296	1.01	1.03	1.03	0.958	0.95	0.976	0.55	0.22
NCI-H1563	0.681	1.03	0.898		0.953	0.995	0.815	0.661	0.617
NCI-H1623	0.577	0.945	0.723	0.592	0.333	0.94	0.928	0.545	0.501
NCI-H1648		0.83	0.704	0.608	0.439	0.765	0.886	0.493	0.312
NCI-H1650	0.465	0.739	0.756	0.838	0.671	0.933	0.788	0.447	0.3

Cell Line	relative viability (Phenformin)	relative viability (Erlotinib; 0.02 µM)	relative viability (Erlotinib; 0.2 µM)	relative viability (Erlotinib; 0.6325 µM)	relative viability (Erlotinib; 2 µM)	relative viability (AT9283; 0.003 µM)	relative viability (AT9283; 0.03 µM)	relative viability (AT9283; 0.09487 µM)	relative viability (AT9283; 0.3 µM)
NCI-H1651	0.328	1.03	0.896	1.04	0.946	0.951	0.999	0.875	0.455
NCI-H1666	0.571	0.973	0.928	0.855	0.728	0.975	0.847	0.66	0.535
NCI-H1703		1.01	0.911	1.02	0.989	0.957	0.31	0.335	0.28
NCI-H1734	0.42	1.02	0.869	0.996	0.934	0.925	0.47	0.336	0.27
NCI-H1755	0.626	1	1.02	1.06	0.935	1.02	1.01	0.617	0.639
NCI-H1792	0.343	0.875	0.821	0.92	0.742	0.887	0.886	0.943	0.376
NCI-H1793	0.401		0.521	0.63	0.455	0.858	1.03	0.39	0.321
NCI-H1915	0.359	1.07	1.01		0.977	0.925	0.929	0.461	0.256
NCI-H1944	0.206		0.72	0.916	0.594	0.903	0.629	0.367	0.268
NCI-H1975	0.409	0.946	0.961	1.11	0.786	0.944	1.03	0.801	0.545
NCI-H1993	0.497	0.965	0.748	0.714		0.961	0.907	0.59	0.497
NCI-H2009	0.485	1.07	0.998	1.08	0.996	1.03	0.859	0.423	0.26
NCI-H2023	0.43	0.966	0.89	0.946	0.758	1.03	0.935	0.266	0.138
NCI-H2085	0.724	0.932	0.851	0.843	0.699	1	0.946	0.937	0.447
NCI-H2087	0.453	1.03	1.03	1.07	0.879	0.988	0.63	0.269	0.16
NCI-H2126	0.535	0.961	0.82	0.773	0.636	0.963	0.991	0.829	0.407
NCI-H2170	0.439	1.02	0.996	0.872	0.656	0.991	0.864	0.471	0.197
NCI-H2228	0.318	0.959	1	1.07	0.871	1.08	0.769	0.33	0.187
NCI-H2342	0.607	0.903	0.891	0.84	0.725	1.04	0.877	0.78	0.424
NCI-H2347	0.421	1.03	1.06	0.987	0.952	1.16	1	0.597	0.514
NCI-H2405	0.379	0.986	1	1.12	0.956	1	0.965	0.519	0.256
NCI-H3122	0.386	0.987		1	0.977	0.982	0.963	0.619	0.236
PC-3 [JPC-3]	0.469	0.945	0.636	0.459	0.407	1.03	0.961	0.868	0.498
PC-14	0.608	0.574	0.31	0.289	0.228	1.05	0.823	0.377	0.133
RERF-LC-KJ	0.42	0.947	0.879	0.871	0.716	0.986	0.667	0.431	0.27
